According to patent publication US20130304029A1, “LOADING AND RELEASE OF WATER-INSOLUBLE DRUGS” (Boston Scientific Scimed, Inc., priority 1997, published 2013):

Experiments:
[1] = Saturation concentration of paclitaxel in ethanol; assay type: physicochemical
Description: Nevertheless, the 30 mg/ml paclitaxel concentration is chosen for release studies as it produces the maximum paclitaxel loading (21-23%), while still being sufficiently below the saturation concentration for paclitaxel in ethanol (39 mg/ml).

[2] = In-vivo delivery of paclitaxel from polyacrylic acid-based coated balloon catheter; parameters: species or system pig; conditions: for Amount of paclitaxel released in bloodstream: loaded minus extracted; for Amount of paclitaxel extracted from balloon after delivery: polyacrylic acid-based coated balloon catheter
Description: A 9.8 mg/ml solution of radio-labeled paclitaxel in chloroform is prepared. A total of 50 μl of the solution is applied via pipet to a balloon catheter having a polyacrylic acid-based coating. The paclitaxel from the coated balloon catheter is then released in-vivo to porcine arteries. After release for a predetermined amount of time, the paclitaxel remaining in the coating is extracted using two sequential ethanol washes. The amount of paclitaxel released in the pig bloodstream, as calculated from the amount of paclitaxel loaded into the coating minus that extracted from the coating after delivery, is shown in Table II.

[3] = Paclitaxel content of polyurethane coated stents by extraction in dichloromethane; assay type: physicochemical; conditions: 30 mg/ml paclitaxel concentration
Description: Slotted tube stainless steel stents are coated with polyurethane by spraying a 1 wt % solution of CHRONOFLEX® polyurethane (made by CT Biomaterials) in tetrahydrofuran directly onto the stent surface. The coated stents are dried in a vacuum oven for three hours at 70° C.
Each polyurethane coated stent is placed in a vial, which is filled to maximum volume (1.5 ml) with a solution of paclitaxel in ethanol, and sealed. The stent is stored in the vial for three days at room temperature. The stent is then removed from the vial and dried for one hour at 65° C.
The above procedure is conducted using solutions of varying concentrations. Each stent is analyzed for paclitaxel content by extraction in dichloromethane solvent. Samples 1 and 2 were obtained using a paclitaxel concentration of 10 mg/ml, samples 3 and 4 using a 20 mg/ml solution and sample 5 and 6 using a 30 mg/ml solution.
Seven polyurethane coated stents are loaded using a 30 mg/ml paclitaxel solution, removed and dried as set forth above. Paclitaxel from four of the stents is extracted in dichloromethane solvent.

CC(=O)O[C@H]1C(=O)[C@@]2(C)[C@H]([C@H](OC(=O)c3ccccc3)[C@]3(O)C[C@H](OC(=O)[C@H](O)[C@@H](NC(=O)c4ccccc4)c4ccccc4)C(C)=C1C3(C)C)[C@]1(OC(C)=O)CO[C@@H]1C[C@@H]2O [paclitaxel]
saturation concentration for paclitaxel in ethanol [1]: 39 mg/mL | % of paclitaxel released in bloodstream ([2]; 1 minute in bloodstream): 63% | Amount of paclitaxel released in bloodstream ([2]; 1 minute in bloodstream): 307 µg | Amount of paclitaxel extracted from balloon after delivery ([2]; 1 minute in bloodstream): 182 ± 1 µg | % of paclitaxel released in bloodstream ([2]; 5 minutes in bloodstream): 68% | Amount of paclitaxel released in bloodstream ([2]; 5 minutes in bloodstream): 330 µg | Amount of paclitaxel extracted from balloon after delivery ([2]; 5 minutes in bloodstream): 160 ± 30 µg | maximum paclitaxel loading [3]: 21-23%
